From patent US8058242B2, “Chimeric proteins with natriuretic activity” (The University of Queensland, priority 2004, dated 2011)
Positions of bridges follow the written chain, without caps; N, C: chain ends. Residues, ends and D or L forms follow the SMILES beside them.

How the values were obtained:
[1] = molecular target: T1, NPR-A signaling in HeLa cells (Homo sapiens, UniProt P16066); experiment: cGMP AlphaScreen assay in HeLa cells (Examples 14, 15); type: cell-based; conditions: 30 minutes at 37° C.
T1 construct: Cyclic GMP (cGMP) elevation in HeLa cells in response to Natriuretic Peptide stimulation; endogenous in cells; host or cells: HeLa cells
T1 sequence (P16066 33-1061): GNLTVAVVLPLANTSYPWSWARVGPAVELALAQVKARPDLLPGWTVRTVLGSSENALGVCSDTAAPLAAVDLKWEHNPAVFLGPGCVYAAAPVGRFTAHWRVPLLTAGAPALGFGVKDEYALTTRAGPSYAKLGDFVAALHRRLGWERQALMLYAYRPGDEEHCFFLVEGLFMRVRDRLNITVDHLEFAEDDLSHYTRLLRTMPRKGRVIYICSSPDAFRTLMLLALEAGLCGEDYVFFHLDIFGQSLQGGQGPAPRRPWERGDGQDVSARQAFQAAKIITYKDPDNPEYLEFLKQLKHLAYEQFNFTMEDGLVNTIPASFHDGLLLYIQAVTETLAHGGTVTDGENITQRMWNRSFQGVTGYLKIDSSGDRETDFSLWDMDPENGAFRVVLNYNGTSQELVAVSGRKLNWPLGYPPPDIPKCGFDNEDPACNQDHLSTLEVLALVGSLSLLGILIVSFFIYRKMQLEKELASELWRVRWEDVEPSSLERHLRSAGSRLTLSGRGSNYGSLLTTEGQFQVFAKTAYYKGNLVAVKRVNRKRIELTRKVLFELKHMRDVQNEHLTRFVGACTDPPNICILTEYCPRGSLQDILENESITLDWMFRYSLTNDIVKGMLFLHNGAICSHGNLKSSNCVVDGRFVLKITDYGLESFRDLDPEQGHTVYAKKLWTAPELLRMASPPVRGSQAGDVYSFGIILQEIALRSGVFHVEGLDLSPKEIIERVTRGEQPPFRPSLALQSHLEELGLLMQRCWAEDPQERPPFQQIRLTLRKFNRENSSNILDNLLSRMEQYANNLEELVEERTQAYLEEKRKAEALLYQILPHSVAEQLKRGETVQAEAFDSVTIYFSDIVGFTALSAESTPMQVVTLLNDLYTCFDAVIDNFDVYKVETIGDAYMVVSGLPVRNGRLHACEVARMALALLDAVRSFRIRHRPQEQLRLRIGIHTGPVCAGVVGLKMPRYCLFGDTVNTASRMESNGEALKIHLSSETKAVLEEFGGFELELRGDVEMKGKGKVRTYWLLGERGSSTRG
Method: HeLa cells were maintained in RPMI cell culture medium (Gihco Invitrogen, Mt Waverley, Australia) supplemented with 10% Foetal Bovine Serum (Cambrex Bio Science, Rockland, USA). Upon reaching confluence, cells were sub-cultured such that they would be 70-90% confluent at time of assay.
Cyclic GMP (cGMP) elevation in HeLa cells in response to Natriuretic Peptide stimulation was performed using a cGMP AlphaScreen kit (PerkinElmer, Boston, USA), as follows for normal experiments: Cells were detached, pelleted to remove growth medium, and resuspended in Stimulation Buffer (Hank's Balanced Salt Solution, 0.1% Bovine Serum Albumin [BSA] (Sigma-Aldrich, Castle Hill, Australia), 1 mM 3-Isobutyl-1-methylxanthine [IBMX] (Sigma-Aldrich, Castle Hill, Australia)) and diluted to 6×10^6 cells per mL (30 000 cells per 5 μL). 5 μL of cells were added to wells of white 384-well OptiPlates (PerkinElmer, Boston, USA), and stimulated with increasing concentrations of peptide for 30 minutes at 37° C. Cells were then lysed with 10 μL Lysis buffer (dH2O, 0.3% Tween-20 (Sigma-Aldrich, Castle Hill, Australia), 5 mM HEPES (JRH Biosciences, Kansas, USA) and 0.1% BSA) and 5 μL acceptor bead mix (10 μL per mL acceptor beads and 1/3000 anti-cGMP antibody (BioVision, Mountain View, USA) in lysis buffer) added per well in the dark. Plates were incubated in the dark at room temperature for 30 minutes, then 5 μL donor bead mix (10 μL per ML donor beads and 0.3 nM biotinylated cGMP in lysis buffer) was added per well in the dark and the plate incubated overnight at room temperature. Signal was read using an EnVision plate reader (PerkinElmer, Boston, USA) and data analysed using Prism software. The cGMP standard curve was performed as per manufacturer's instructions.
To examine whether TNPc and synthetic analogs produced in the inventors' laboratory could stimulate NPR-A signaling, cGMP elevations in HeLa cells in response to these peptides were measured, as described above.

[2] = molecular target: Endopeptidase (NEP) (EC 3.4.24.11) (Homo sapiens, UniProt P08473); experiment: Stability to enzymatic degradation by NEP (Examples 7, 16); type: in vitro ADME; conditions: over the 360 min measurement period
Sequence of Endopeptidase (NEP) (EC 3.4.24.11) (P08473 whole entry): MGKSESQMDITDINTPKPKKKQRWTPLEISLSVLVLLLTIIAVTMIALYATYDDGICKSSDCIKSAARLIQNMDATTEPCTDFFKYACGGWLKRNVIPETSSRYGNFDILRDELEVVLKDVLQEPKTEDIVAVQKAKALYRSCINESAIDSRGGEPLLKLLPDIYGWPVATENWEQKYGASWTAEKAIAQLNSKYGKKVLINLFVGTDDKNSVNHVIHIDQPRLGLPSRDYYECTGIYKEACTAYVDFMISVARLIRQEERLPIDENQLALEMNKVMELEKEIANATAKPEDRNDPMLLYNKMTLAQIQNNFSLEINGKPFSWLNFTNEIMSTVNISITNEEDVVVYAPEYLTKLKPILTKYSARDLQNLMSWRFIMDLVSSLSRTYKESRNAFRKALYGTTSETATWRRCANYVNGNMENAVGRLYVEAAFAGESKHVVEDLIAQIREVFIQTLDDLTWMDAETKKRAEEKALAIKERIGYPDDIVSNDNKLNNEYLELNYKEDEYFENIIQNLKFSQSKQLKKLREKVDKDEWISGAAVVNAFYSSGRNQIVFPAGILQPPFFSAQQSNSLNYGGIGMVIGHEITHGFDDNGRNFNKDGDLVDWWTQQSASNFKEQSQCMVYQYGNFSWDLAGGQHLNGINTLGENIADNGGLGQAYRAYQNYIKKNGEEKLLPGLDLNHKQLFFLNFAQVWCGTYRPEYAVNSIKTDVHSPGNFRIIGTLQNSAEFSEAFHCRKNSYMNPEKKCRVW
Method: (§1) The incubation buffer contained 100 mM Tris/HCl and 150 mM NaCl and the pH was adjusted to 7.2-7.4. In each assay, 100 μl of peptide [500 μM] was incubated with 300 μl buffer (with 500 ng Endopeptidase (NEP) or 10 μg Plasmin) at 37° C. 50 μl aliquots were taken at times 5 min, 30 min, 60 min, 90 min, 180 min and 24 h. The reaction was quenched by heating to 100° C. for 4 min and the remaining peptide concentrations measured by RP-HPLC. Note that the levels of Plasmin required to degrade these peptides was several thousands time the levels present in human plasma.
(§2) The stability of TDT and was investigated using the same enzymatic degradation assays (NEP, plasmin, pepsin) disclosed in Example 7. […] It is also evident that the increased NEP stability cannot be explained by the length of the tail region alone as the NEP cleavage site residues at the N-terminal end of the loop region.

Plasmin = molecular target: T2, Plasmin (Homo sapiens, UniProt P00747); experiment: Stability to enzymatic degradation by plasmin (Examples 7, 16); type: in vitro ADME
T2 construct: with 500 ng Endopeptidase (NEP) or 10 μg Plasmin
T2 sequence (P00747 97-580 partner limits assumed, species assumed): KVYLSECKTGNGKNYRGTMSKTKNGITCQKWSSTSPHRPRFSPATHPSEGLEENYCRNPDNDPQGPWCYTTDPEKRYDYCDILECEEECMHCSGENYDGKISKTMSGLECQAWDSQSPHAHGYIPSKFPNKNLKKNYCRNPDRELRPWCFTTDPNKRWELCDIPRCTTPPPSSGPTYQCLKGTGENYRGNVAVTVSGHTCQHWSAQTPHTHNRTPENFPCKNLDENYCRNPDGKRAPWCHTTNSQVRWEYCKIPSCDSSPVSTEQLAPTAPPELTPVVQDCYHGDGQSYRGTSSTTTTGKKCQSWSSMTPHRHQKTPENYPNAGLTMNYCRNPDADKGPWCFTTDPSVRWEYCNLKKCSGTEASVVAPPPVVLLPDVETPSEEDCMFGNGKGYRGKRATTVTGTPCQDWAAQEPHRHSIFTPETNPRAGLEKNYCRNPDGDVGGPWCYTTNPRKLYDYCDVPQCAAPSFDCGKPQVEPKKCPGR
T2 sequence (P00747 581-810 limits assumed, species assumed): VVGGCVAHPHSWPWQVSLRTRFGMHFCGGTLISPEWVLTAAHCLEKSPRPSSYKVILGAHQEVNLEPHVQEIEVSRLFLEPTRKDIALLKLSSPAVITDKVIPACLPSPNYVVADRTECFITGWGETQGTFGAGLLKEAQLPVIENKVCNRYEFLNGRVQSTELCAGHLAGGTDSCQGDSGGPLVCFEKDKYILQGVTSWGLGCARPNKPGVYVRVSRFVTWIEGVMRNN
Method: as §1, §2

pepsin = experiment: Stability to enzymatic degradation by pepsin (Example 16); type: in vitro ADME
Text: as §2

CC[C@H](C)[C@H](NC(=O)[C@H](CCCCN)NC(=O)[C@H](CO)NC(=O)[C@H](CC(=O)O)NC(=O)[C@@H](N)CO)C(=O)NCC(=O)N[C@@H](CC(N)=O)C(=O)NCC(=O)N[C@H]1CSSC[C@@H](C(=O)N[C@@H](CC(N)=O)C(=O)N[C@@H](CCCNC(=N)N)C(=O)N[C@H](C(=O)N[C@@H](CCSC)C(=O)N[C@@H](CCC(N)=O)C(=O)N[C@@H](CC(N)=O)C(=O)N2CCC[C@H]2C(=O)N2CCC[C@H]2C(=O)N[C@@H](CCCCN)C(=O)N[C@@H](CCCCN)C(=O)N[C@@H](Cc2ccccc2)C(=O)N[C@@H](CO)C(=O)NCC(=O)N[C@@H](CCC(=O)O)C(=O)O)[C@@H](C)CC)NC(=O)CNC(=O)[C@H](CC(C)C)NC(=O)[C@H](CC(N)=O)NC(=O)[C@H](CO)NC(=O)[C@H](C(C)C)NC(=O)[C@H](Cc2c[nH]cn2)NC(=O)[C@H](CC(N)=O)NC(=O)[C@H]([C@@H](C)CC)NC(=O)[C@H](CCCNC(=N)N)NC(=O)[C@H](CC(=O)O)NC(=O)[C@H]([C@@H](C)CC)NC(=O)[C@H](CCCCN)NC(=O)[C@H](Cc2c[nH]cn2)NC(=O)CNC(=O)[C@H](Cc2ccccc2)NC1=O [TDT] (H-SDSKIGNGCFGHKIDRINHVSNLGCNRIMQNPPKKFSGE-OH; disulfide 9-25)
EC50 ([1]; EC50, cGMP accumulation in HeLa cells): 70.4 nM
EC50 ([1]; −Log10EC50 (pEC50) ± Standard Error, cGMP accumulation in HeLa cells): 61.9 nM
degradation by NEP [2]: minimal degradation
stability against plasmin compared with ANP (Plasmin): more stable than ANP
stability against pepsin compared with ANP (pepsin): more stable than ANP
